Data set [1] deals with T1, HLA-DR4 (DRB1*0401) on L243.6 cells (Homo sapiens, UniProt P01903+P01911, A100K/A169T/F76Y/I96L/K127E/L162R/M171V/N62H/P40V/Q125Y/R42H/S133A/S149N/S66Y/V115G/V209L/W38E).
T1 construct: expressed in transfected cells; host or cells: L243.6 fibroblast cells
Briefly: Loading of HLA-DR4 on the cell surface of fibroblast cells with biotinylated peptide, flow cytometry. The class given is cell-based. The following applies: 4 hours, 37° C., active at markedly less than a tenth of the pCP concentration. The protocol:
(§1) The catalytic properties of found substances on the loading of MHC class II molecules located on cells was determined in cell loading experiments. To this end, from 50,000 to 100,000 cells in 50 μl of DMEM were mixed with 50 μl of 24 μM HA-biot. dissolved in DMEM and 50 μl of catalyst solution (different concentrations dissolved in DMEM with a maximum DMSO content of 3%) and incubated for 4 hours at 37° C. and 10% CO2. As controls, only 50 μl of peptide solution and 50 μl of DMEM were added to cells in several batches. At the end of the incubation time, the cells were centrifuged off for 5 minutes at 1300 rpm, and supernatant medium was removed. […] After removal of the supernatant, the cell pellets were again detached and taken up in 50 μl/well of streptavidin-phycoerythrin solution (SA-PE stock solution (1 mg/ml) diluted 1:200 with 2% FCS-PBS). Staining was carried out for 30 minutes at 4° C. with the exclusion of light, in order to avoid excessive decomposition of the fluorescent dyes. […] The cells were then analysed using a continuous-flow cytometer. […]
On the technique in general: In flow cytometry, cells or beads pass a laser one at a time.

Data set [2] addresses T2, HLA-DR1 (DRB1*0101) on L57.23 cells (Homo sapiens, UniProt P01903+P01911, A100R/D57E/F55L/F60I/F76Y/I96L/L162R/M171V/P40L/Q125E/R42F/V115G/Y59C).
T2 construct: expressed in transfected cells; host or cells: L57.23 fibroblast cells
Briefly: Loading of HLA-DR1 on the cell surface of fibroblast cells with biotinylated peptide, flow cytometry. The data set is classed as cell-based. The following applies: 4 hours, 37° C., active at markedly less than a tenth of the pCP concentration. The protocol:
as §1

In the next data set the target is T3, HLA-DR1 (DRB1*0101) (Homo sapiens, UniProt P01903+P01911, A100R/D57E/F55L/F60I/F76Y/I96L/L162R/M171V/P40L/Q125E/R42F/V115G/Y59C).
T3 construct: HLA-DR-expressing 721.221 cells; endogenous in cells; host or cells: 721.221 cells
Briefly: HLA-DR1-restricted T-cell response after catalysed loading of 721.221 cells (EvHA/X5, hCII19.3 T-cells). The class given is cell-based. To be noted: HA306-318 (EvHA/X5) or CO260-273 (hCII19.3) loaded onto 721.221 cells. From the text:
In the present comparison test, the enhancement of the T-cell response by catalysis of the loading of HLA-expressing cells was investigated. […] Either HA306-318 (see also FIG. 3, left-hand panel) or CO260-273 (see also FIG. 3, right-hand panel) was used as peptide antigen. After the loading, the cells were washed and used to stimulate EvHA/X5 and hCII19.3 cells, respectively.
In order to investigate the catalysis of a HLA-DR1 (DRB1*0101)-restricted T-cell response by various catalytically active adamantyl compounds, dose-activity curves of the catalysis of a HLA-DR1 (DRB1*0101)-restricted T-cell response were prepared. The experiment was carried out analogously to Comparison Experiment 3.3, the peptide antigen HA306-318 being loaded onto 721.221 cells in order thereby to stimulate EvHA/X5 T-cells. […] Because the position of the dose-activity curves is evidently also determined by the side chain, a modulating activity can be attributed thereto.

The next data set concerns the target H2-A^k (Mus musculus, UniProt P01910+P06343). Briefly: T-cell assay on mouse MHC class II molecule H2-A. The class given is cell-based. To be noted: T-cell assays. The protocol:
(§2) In the following, the catalysis of HLA loading by pCP was determined for the purposes of comparison. […] These dose-activity curves show the activity of the two catalysts on HLA-DR molecules with a deep or flat P1 pocket {β86G and β86V} as well as on the mouse MHC class II molecules H2-Ek and H2-Ak.

A further data set deals with HLA-DR4 (DRB1*0401) (Homo sapiens, UniProt P01903+P01911, A100K/A169T/F76Y/I96L/K127E/L162R/M171V/N62H/P40V/Q125Y/R42H/S133A/S149N/S66Y/V115G/V209L/W38E). To be noted: HA306-318, 8475/94 T-cells. The protocol: (§3) For evaluation, dose-activity curves of a HLA-DR4-restricted (FIG. 4, left-hand panel) and a HLA-DR2-restricted T-cell response (FIG. 4, right-hand panel) were prepared.

The test system of another data set is H2-E^k. Briefly: T-cell assay on mouse MHC class II molecule H2-E. To be noted: T-cell assays. The data set is classed as cell-based. The protocol:
as §2

The next data set has as its target T4, HLADR2 (DRB1*1501) (Homo sapiens, UniProt P01903+P01911).
T4 construct: endogenous in cells; host or cells: MGAR cells
Briefly: HLA-DR2-restricted T-cell response (08073 T-cells, MGAR cells) after catalysed loading. The class given is cell-based. To be noted: MBP86-100, 08073 T-cells. The protocol:
as §3

The test system of data set [3] is HLA-DR molecules with a deep or flat P1 pocket (β86G and β86V). Briefly: T-cell assays on HLA-DR molecules with a deep or flat P1 pocket. The class given is cell-based, human. The following applies: dose-activity curves. The protocol:
as §2

For data set [4], the target named is T5, soluble HLA-DR1 (DRA1*0101, DRB1*0101) (Homo sapiens, UniProt P01903+P01911, A100R/D57E/F55L/F60I/F76Y/I96L/L162R/M171V/P40L/Q125E/R42F/V115G/Y59C).
T5 construct: shortened α- and […]-chains without the cytoplasmatic and transmembrane portion of the MHC molecule; made in house; host or cells: S2 insect cells
Briefly: Loading of empty soluble HLA-DR1 with biotinylated HA306-318 peptide, sandwich ELISA. The class given is biochemical. The protocol:
In order to monitor catalysis of the loading of HLA-DR molecules by compounds of formulae I, IA, II, III and IV1 to IV3, empty, soluble DR molecules were incubated with biotinylated, high-affinity peptide, and these were then detected in a sandwich ELISA for the MHC complexes.
All the batches were then adjusted to a final volume of 10 μl with 2% BSA-PO4^3− buffer (in the case of HLA-DR1 only with PO4^3− buffer). The reaction was started by incubation at 37° C. in a thermocycler. After 40 minutes, the incubation was terminated and the loading reaction was stopped by storage on ice and addition of 50 μl of ice-cold 1% BSA-PBS.
The detection of bound peptide was carried out by means of a sandwich ELISA. […] Between these steps, the plate was washed twice with PBS-0.05% Tween with the aid of a PW plate-washing device (Tecan Industries) and, before filling with fresh solution, all remaining liquid residues were removed by tapping on Scott®Natura paper towels (Hakle-Kimberly Deutschland GmbH). After blocking of non-specific binding sites, the plate was washed three times and filled with 50 μl/well of 1% BSA-PBS. 2×25 μl per reaction batch were transferred to the plate as double values and were carefully mixed thereon (total volume per well: 75 μl). From each filled series, a further 25 μl/well were then again titrated on the plate in a series of two-stage dilutions (final volume per well: 50 μl). The plates so filled were then stored for 2 hours at 4° C. under stationary conditions. Each plate was then washed six times as described above and filled with 80 μl/well of Eu^3+-streptavidin staining solution (europium-streptavidin stock solution diluted 1:10,000 with 1% BSA-PBS) and incubated for 30 minutes at room temperature (RT). After washing for a further eight times, 100 μl/well of fluorescence-activated solution (enhancer) were then added and the signal was measured by means of a Victor^2-multilabelcounter (Wallac Oy) at an excitation wavelength of 340 nm and an emission wavelength of 615 nm in time-resolving mode.
The following experiment was therefore carried out. One catalyst in a fixed concentration of 0.05 mM was introduced into each of a number of batches for loading HLA-DR1 with HA-biot. The same concentration of a second catalyst was then added to each batch. As controls, 1×1% DMSO was added and, as negative control, a reaction mixture was prepared with 2×1% DMSO. The reaction mixtures were then incubated for 40 minutes as already described and the load was measured in a sandwich ELISA.
The resulting load was then determined in an ELISA using biotinylated peptide (see FIG. 1).
The amount of peptide/MHC complexes formed within this time was then determined by means of an ELISA assay (capture antibody: anti-HLA-DR; detection: fluorescent-labelled streptavidin). The activities of the individual compounds were grouped on the basis of the dose/activity curves obtained thereby.
For orientation: ELISA stands for enzyme-linked immunosorbent assay.

The target of data set [5] is T6, empty, soluble HLA-DR1 complexes (Homo sapiens, UniProt P01903+P01911, A100R/D57E/F55L/F60I/F76Y/I96L/L162R/M171V/P40L/Q125E/R42F/V115G/Y59C).
T6 construct: shortened α- and […]-chains without the cytoplasmatic and transmembrane portion of the MHC molecule; made in house; host or cells: S2 insect cells
Briefly: High-throughput HLA-DR1 loading test of the substance library and validation of hits. The data set is classed as biochemical. To be noted: final concentration of 0.4 mM. The protocol: The compounds of formulae I, IA, II, III and IV1 to IV3 to be tested were supplied in 384-well plates in the form of a 160 mM starting library, dissolved in DMSO, from which an aliquot library had to be prepared. By manually removing 2 μl/well and diluting with 38 μl/well of DMSO, a 8 mM stock library was prepared, which was used for all further tests. In order to analyse the compounds of formulae I, IA, II, III and IV1 to IV3 that were present for their effect on MHC class II molecules, a high-throughput method based on a HLA-DR1 loading test was used. To this end, two 384-well Nunc-Maxisorp plates (ELISA plates) per library plate were coated overnight at 4° C. with 60 μl/well of monoclonal anti-HLA-DR antibody (L243 stock solution (1 mg/ml) diluted 1:500 in 100 mM NaHCO3). The plates were then washed three times by immersion in PBS-0.05% Tween solution and removal of air bubbles by tapping the plate against the wall of the washing vessel. Remaining washing solution was removed by beating the plates on paper towels, and 80 μl/well of 2% BSA-PBS were introduced. Non-specific binding was to be prevented by incubation at 37° C. for at least one hour. […] Excess staining solution was then removed by washing eight times with PBS-0.05% Tween, and 80 μl/well of fluorescence-activated solution (enhancer) were added manually by means of a pipette. […]

Entries after “also recorded” stand apart in the source; their conditions may differ.

Chain of H2-A^k (P01910 24-256): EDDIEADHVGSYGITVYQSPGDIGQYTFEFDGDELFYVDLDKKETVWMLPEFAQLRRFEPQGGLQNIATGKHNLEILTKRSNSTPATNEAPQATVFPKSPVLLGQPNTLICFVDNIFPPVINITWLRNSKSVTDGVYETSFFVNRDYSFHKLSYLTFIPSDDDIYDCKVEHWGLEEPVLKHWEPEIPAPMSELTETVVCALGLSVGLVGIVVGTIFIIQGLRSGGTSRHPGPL
Chain of H2-A^k (P06343 28-263): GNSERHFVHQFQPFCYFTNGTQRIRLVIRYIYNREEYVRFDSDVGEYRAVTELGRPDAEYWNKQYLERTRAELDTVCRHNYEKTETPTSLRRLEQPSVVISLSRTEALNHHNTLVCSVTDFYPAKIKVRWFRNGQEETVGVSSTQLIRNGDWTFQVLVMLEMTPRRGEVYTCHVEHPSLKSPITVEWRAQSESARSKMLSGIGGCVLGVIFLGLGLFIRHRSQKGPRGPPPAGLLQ

Turning to `NNC(=O)c1cc(C23CC4CC(CC(C4)C2)C3)n[nH]1` [AdCaPy, 3-(1-adamantyl)-5-carbohydrazide pyrazole], the “loading of cells with HA306-318, dose-activity curves compared with pCP” value in data set [1] and in data set [2] was “substantially more active than pCP” in each case. For the same molecule, the “immune response of HLA-DR1-restricted T-cells” value at HLA-DR1 (DRB1*0101) is on record as “markedly enhanced”.
As to `Oc1ccc(Cl)cc1` [pCP, p-chlorophenol], the “effect on H2-A molecules” value at H2-A^k is reported as “no effect”. Also, at HLA-DR4 (DRB1*0401), the “HLA-DR4-restricted T-cell response” value is given as “enhancing effect on all the HLA-DR molecules investigated”. In the data set on H2-E^k, the “effect on H2-E molecules” value was “no effect”. Further, the “HLA-DR2-restricted T-cell response” value at HLADR2 (DRB1*1501) is on record as “enhancing effect on all the HLA-DR molecules investigated”. Also, in data set [3], the “activity on HLA-DR molecules with deep or flat P1 pocket” value was “no dependence on the […]86 dimorphism; also recorded: independent of the depth of the P1 pocket”.
Regarding “dichlorophenylhydroxyiminoacetamide [DPHIA]”, in the data set with L57.23 cells, the toxicity entry is reported as “even lower toxic effects than AdaEtOH or 4-HBP”. In addition, the “catalytic activity in the ELISA” value in [4] is recorded as “similarly good results as AdaEtOH”.
Consider `Oc1cc(Cl)c(Cl)cc1O` [DCC, 1,2-dichloro-4,5-dihydroxybenzene, reference compound], for which, in [5], the “load signal (threshold value of library analysis)” value is listed as 15,000 counted events. In addition, the “catalytic activity of phenol/aniline compounds, comparison of dose-activity curves” value in data set [4] (accelerated loading of soluble HLA-DR1 with HA306-318, compared with pCP) is “slightly increased activity”.

For the origin of these results see patent US20070280957A1, “Change of the Load State of Mhc Molecules” (priority 2004, published 2007).
